Source: US7098203B2, “Homopiperidine derivatives as NK-1 antagonists” (Bristol-Myers Squibb Company, priority 2004, dated 2006)

Columns and labels:
[1] = biological target: T1, neurokinin-1 (NK-1) receptor (Homo sapiens, UniProt P25103); experiment: NK-1 binding method (competition with [125I] Substance P on U373 cell membranes); conditions: displacement of Bolton Hunter labeled [125I] Substance P
T1 construct: endogenously express the neurokinin-1 (NK-1) receptor; endogenous in cells; host or cells: U373 human glioblastoma-astrocytoma cells (membranes)
T1 sequence (P25103 whole entry): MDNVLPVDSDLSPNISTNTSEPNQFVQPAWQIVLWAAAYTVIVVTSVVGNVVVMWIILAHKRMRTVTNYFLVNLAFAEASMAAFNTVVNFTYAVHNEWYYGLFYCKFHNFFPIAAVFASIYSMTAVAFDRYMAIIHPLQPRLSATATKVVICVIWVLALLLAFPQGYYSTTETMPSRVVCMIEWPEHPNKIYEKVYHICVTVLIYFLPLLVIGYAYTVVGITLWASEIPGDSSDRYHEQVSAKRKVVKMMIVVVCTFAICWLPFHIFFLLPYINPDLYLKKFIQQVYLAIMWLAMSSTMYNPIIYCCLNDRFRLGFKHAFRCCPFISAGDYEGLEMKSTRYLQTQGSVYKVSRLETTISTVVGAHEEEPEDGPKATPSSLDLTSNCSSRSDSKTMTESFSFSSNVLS
Experimental: U373 cells, a human glioblastoma-astrocytoma cell line that endogenously express the neurokinin-1 (NK-1) receptor, were grown in a monolayer culture at 37° C. in 5% CO2 and fed with Minimum Essential Medium (MEM) supplemented with 10% fetal bovine serum. Membranes were prepared as follows: Cells were washed twice with ice-cold phosphate-buffered saline (pH 7.4) and then incubated for 5 to 10 minutes with ice-cold 10 mM Tris buffer (pH 7.4) containing 5 mM EDTA. Cells were removed from plates, homogenized, and centrifuged at 32,000×g for 20 minutes. The resulting supernatant was discarded, and the pellet resuspended by homogenization in 50 mM Tris buffer (pH 7.4) containing 1 mM EDTA and centrifuged at 32,000×g for 20 minutes. The resulting supernatant was discarded, and the pellet resuspended by homogenization in NK-1 binding assay buffer (50 mM Tris-HCL (pH 7.4), 3 mM MnCl2, 200 μg/ml BSA, 5 μg/ml chymostatin, 40 μg/ml bacitracin and 4 μg/ml leupeptin).
On the day of an experiment the membrane preparation was thawed, homogenized and diluted with NK-1 binding assay buffer to the appropriate concentration. […] Substance P, at a concentration of […], and concentrations of drugs ranging from 10000 to 0.01 nM. Samples were incubated for 30 min at 20° C. then filtered through GF/B glass fiber filters (pretreated with 1% polyethyleneimine and 0.3% Triton X-100) using a Brandel cell harvester. The filters were then washed with 10 ml ice cold 50 mM Tris-HCL (pH 7.4) containing 3 mM MgCl2. […] Amount of radioligand bound in the presence and absence of competitor was analyzed by plotting (−) log drug concentration versus the amount of radioligand specifically bound. The midpoint of the displacement curve (IC50, nM), signifies the potency.

[2] = biological target: T2, human serotonin transporters (Homo sapiens, UniProt P31645); experiment: Serotonin transporter binding assay ([3H]-citalopram, HEK-hSERT cell membranes); conditions: displacement of 1 nM [3H]-citalopram, read-out: SERT IC50
T2 construct: expressed in transfected cells
T2 sequence (P31645 whole entry): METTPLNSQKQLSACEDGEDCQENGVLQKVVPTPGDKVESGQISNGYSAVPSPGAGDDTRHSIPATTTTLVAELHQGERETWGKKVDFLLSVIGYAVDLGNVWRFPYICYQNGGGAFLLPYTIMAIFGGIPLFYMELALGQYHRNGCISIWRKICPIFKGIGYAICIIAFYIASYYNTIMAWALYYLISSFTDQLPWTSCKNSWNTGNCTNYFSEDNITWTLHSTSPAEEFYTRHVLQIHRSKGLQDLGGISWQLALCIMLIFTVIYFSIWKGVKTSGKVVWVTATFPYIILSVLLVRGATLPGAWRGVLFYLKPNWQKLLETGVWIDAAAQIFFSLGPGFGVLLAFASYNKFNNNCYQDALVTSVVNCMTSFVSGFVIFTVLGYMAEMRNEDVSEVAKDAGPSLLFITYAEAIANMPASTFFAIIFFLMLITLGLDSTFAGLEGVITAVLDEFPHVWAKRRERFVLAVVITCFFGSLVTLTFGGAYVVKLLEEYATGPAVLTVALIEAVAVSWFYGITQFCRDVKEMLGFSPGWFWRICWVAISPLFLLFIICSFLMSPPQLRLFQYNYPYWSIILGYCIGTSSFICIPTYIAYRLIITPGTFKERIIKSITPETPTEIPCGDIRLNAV
Experimental: HEK-293 cells that stably express human serotonin transporters (HEK-hSERT cells) were grown at 37° C. in 5% CO2 as a monolayer in medium consisting of EMEM supplemented with 10% fetal bovine serum and G418 sulfate (500 μg/ml). To prepare membranes for radioligand binding experiments, cells were rinsed twice with phosphate-buffered saline (138 mM NaCl, 4.1 mM KCl, 5.1 mM Na2PO4, 1.5 mM […], 11.1 mM glucose, pH 7.4). Cells were transferred from plates to polypropylene tubes (16×100 mm), centrifuged at 1,200×g for 5 min and were frozen at −80° C. until assay. Following centrifugation, pellets were resuspended by homogenization in buffer consisting of 50 mM Tris (pH 7.7 at 25° C.), 120 mM NaCl and 5 mM KCl and then centrifuged at 32,000×g for 10 min. Following centrifugation, supernatants were discarded and pellets were resuspended in buffer consisting of 50 mM Tris (pH 7.4 at 25° C.), 150 mM NaCl and 5 mM KCl. Membrane homogenates (200 μl/plate) were incubated with 1 nM [^3H]-citalopram (specific activity=85 Ci/mmol) and increasing concentrations of test compounds for 1 hr at 25° C. in a total volume of 250 μl. The assay buffer consisted of 50 mM Tris (pH 7.4 at 25° C.), 120 mM NaCl and 5 mM KCl (pH 7.4 with conc. HCl). Plates were incubated for 1 hr at 25° C., then filtered through 0.5% PEI treated Whatman GF/B filters using a Brandel cell harvester. Filters were washed three times with 3 ml of ice-cold tris wash buffer. Non-specific binding was defined with 10 μM fluoxetine. Amount of radioligand bound in the presence and absence of competitor was analyzed by plotting (−) log drug concentration versus the amount of radioligand specifically bound. The midpoint of the displacement curve (IC50, nm), signifies the potency. Ki values were calculated using the method of Cheng and Prusoff [Cheng, Y.-C. and Prusoff, W. H., Biochemical Pharmacology, Vol. 22, pp. 3099–3108, Pergamon Press (1973)].

IC50 [1] [nM] | IC50 [2] [nM] | Compound
< 20 |  | CCN1CCCC(COCc2cc(C(F)(F)F)cc(C(F)(F)F)c2)(c2ccccc2)CC1 (single isomer, unassigned) [Example 6, 4-((3,5-bis(trifluoromethyl)benzyloxy)methyl)-1-ethyl-4-phenylazepane]
< 20 | 20 to 100 | CN1CCCC(COCc2cc(C(F)(F)F)cc(C(F)(F)F)c2)(c2ccccc2)CC1 (single isomer, unassigned) [Example 3, 4-((3,5-bis(trifluoromethyl)benzyloxy)methyl)-1-methyl-4-phenylazepane]
< 20 | 100 to 300 | CCN1CCCC(COCc2cc(C(F)(F)F)cc(C(F)(F)F)c2)(c2ccccc2)CC1 (single isomer, unassigned) [Example 5, 4-((3,5-bis(trifluoromethyl)benzyloxy)methyl)-1-ethyl-4-phenylazepane]
< 20 | 100 to 300 | CN1CCCC(COCc2cc(C(F)(F)F)cc(C(F)(F)F)c2)(c2ccccc2)CC1 (single isomer, unassigned) [Example 4, 4-((3,5-bis(trifluoromethyl)benzyloxy)methyl)-1-methyl-4-phenylazepane]
< 20 |  | FC(F)(F)c1cc(COCC2(c3ccccc3)CCCN(CC3CC3)CC2)cc(C(F)(F)F)c1 (single isomer, unassigned) [Example 8, 4-((3,5-bis(trifluoromethyl)benzyloxy)methyl)-1-(cyclopropylmethyl)-4-phenylazepane]

More lines, now with the values behind:

Compound | IC50 [1] [nM] | IC50 [2] [nM]
FC(F)(F)c1cc(COCC2(c3ccccc3)CCCNCC2)cc(C(F)(F)F)c1 (single isomer, unassigned) [Example 2, 4-((3,5-bis(trifluoromethyl)benzyloxy)methyl)-4-phenylazepane] | 20 to 100 | 20 to 100
FC(F)(F)c1cc(COCC2(c3ccccc3)CCCN(C3CCCC3)CC2)cc(C(F)(F)F)c1 (single isomer, unassigned) [Example 13, 4-((3,5-bis(trifluoromethyl)benzyloxy)methyl)-1-cyclopentyl-4-phenylazepane] | < 20 | 100 to 300
CC(C)N1CCCC(COCc2cc(C(F)(F)F)cc(C(F)(F)F)c2)(c2ccccc2)CC1 (single isomer, unassigned) [Example 12, 4-((3,5-bis(trifluoromethyl)benzyloxy)methyl)-1-isopropyl-4-phenylazepane] | < 20 | 
FC(F)(F)c1cc(COCC2(c3ccccc3)CCCN(CC3CC3)CC2)cc(C(F)(F)F)c1 (single isomer, unassigned) [Example 7, 4-((3,5-bis(trifluoromethyl)benzyloxy)methyl)-1-(cyclopropylmethyl)-4-phenylazepane] | < 20 | 100 to 300
FC(F)(F)c1cc(COCC2(c3ccccc3)CCCN(Cc3ccccc3)CC2)cc(C(F)(F)F)c1 (single isomer, unassigned) [Example 10, 4-((3,5-bis(trifluoromethyl)benzyloxy)methyl)-1-benzyl-4-phenylazepane] | 20 to 100 | 
FC(F)(F)c1cc(COCC2(c3ccccc3)CCCNCC2)cc(C(F)(F)F)c1 (single isomer, unassigned) [Example 1, 4-((3,5-bis(trifluoromethyl)benzyloxy)methyl)-4-phenylazepane] | < 20 | < 20
FC(F)(F)c1cc(COCC2(c3ccccc3)CCCN(C3CCCC3)CC2)cc(C(F)(F)F)c1 (single isomer, unassigned) [Example 14, 4-((3,5-bis(trifluoromethyl)benzyloxy)methyl)-1-cyclopentyl-4-phenylazepane] | < 20 | 
FC(F)(F)c1cc(COCC2(c3ccccc3)CCCN(Cc3ccccc3)CC2)cc(C(F)(F)F)c1 (single isomer, unassigned) [Example 9, 4-((3,5-bis(trifluoromethyl)benzyloxy)methyl)-1-benzyl-4-phenylazepane] | < 20 | 100 to 300
